# Assay results: ChEMBL document CHEMBL1201862, “PubChem BioAssay data set” (2004)
#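 Protocol summary: plate cells (96-well), add compound at 5 concentrations, incubate 48 h, interpolate endpoints linearly. The concentration for 50% growth inhibition is given as GI50.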 Activity calls are given as the source filed them. Cut-off read from the data, not from the text of the source: active = GI50 up to about 1.1 µM and inactive = higher.
# What was measured:
# Assay in all cases: growth of human tumour cells (NCI), 48 h
# HL-60 = tested on: HL-60
# RPMI-8226 = tested on: RPMI-8226
# Malme-3M = tested on: Malme-3M
# SK-MEL-28 = tested on: SK-MEL-28
# K562 = tested on: K562
# SN12C = tested on: SN12C
# KM12 = tested on: KM12
# DLD-1 = tested on: DLD-1
# MOLT-4 = tested on: MOLT-4
# M19-MEL = tested on: M19-MEL
# U-251 = tested on: U-251
# LOX IMVI = tested on: LOX IMVI
# SNB-19 = tested on: SNB-19
# OVCAR-8 = tested on: OVCAR-8
# HCT-116 = tested on: HCT-116
# LXFL 529 = tested on: LXFL 529
# ACHN = tested on: ACHN
# HT-29 = tested on: HT-29
# EKVX = tested on: EKVX
# 786-0 = tested on: 786-0
# M14 = tested on: M14
# TK-10 = tested on: TK-10
# DMS-273 = tested on: DMS-273
# UO-31 = tested on: UO-31
# HCT-15 = tested on: HCT-15
# OVCAR-5 = tested on: OVCAR-5
# NCI-H226 = tested on: NCI-H226
# IGROV-1 = tested on: IGROV-1
# NCI-H23 = tested on: NCI-H23
# HOP-62 = tested on: HOP-62
# COLO 205 = tested on: COLO 205
# UACC-62 = tested on: UACC-62
# KM-20L2 = tested on: KM-20L2
# SK-MEL-5 = tested on: SK-MEL-5
# SK-MEL-2 = tested on: SK-MEL-2
# A498 = tested on: A498
# HCC 2998 = tested on: HCC 2998
# UACC-257 = tested on: UACC-257
# A549 = tested on: A549
# CCRF-CEM = tested on: CCRF-CEM
# CAKI-1 = tested on: CAKI-1
# SNB-78 = tested on: SNB-78
# SK-OV-3 = tested on: SK-OV-3
# HOP-92 = tested on: HOP-92
# OVCAR-3 = tested on: OVCAR-3
# OVCAR-4 = tested on: OVCAR-4
# NCI-H522 = tested on: NCI-H522
# SW-620 = tested on: SW-620
# SF-295 = tested on: SF-295
# NCI-H460 = tested on: NCI-H460
# RXF 393 = tested on: RXF 393
# DMS-114 = tested on: DMS-114
# SR = tested on: SR
# SF-539 = tested on: SF-539
# SNB-75 = tested on: SNB-75
structure (smiles),measurement,setting,value
Cc1ccc2c(C3Cc4ccccc4N3C(=O)/C=C\C(=O)O)c(C)[nH]c2c1 (stereo not given),GI50,HL-60,19.6 µM (inactive)
same,GI50,RPMI-8226,24.4 µM (inactive)
same,GI50,Malme-3M,33.5 µM (inactive)
same,GI50,SK-MEL-28,59 µM (inactive)
same,GI50,K562,22.2 µM (inactive)
same,GI50,SN12C,49.8 µM (inactive)
same,GI50,KM12,35.2 µM (inactive)
same,GI50,DLD-1,60.3 µM (inactive)
same,GI50,MOLT-4,29.5 µM (inactive)
same,GI50,M19-MEL,67.5 µM (inactive)
same,GI50,U-251,44.6 µM (inactive)
same,GI50,LOX IMVI,30.6 µM (inactive)
same,GI50,SNB-19,40.7 µM (inactive)
same,GI50,OVCAR-8,30.6 µM (inactive)
same,GI50,HCT-116,53 µM (inactive)
same,GI50,LXFL 529,18.7 µM (inactive)
same,GI50,ACHN,> 100 µM (inactive)
same,GI50,HT-29,73.5 µM (inactive)
same,GI50,EKVX,78.7 µM (inactive)
same,GI50,786-0,47.9 µM (inactive)
same,GI50,M14,44.4 µM (inactive)
same,GI50,TK-10,56.1 µM (inactive)
same,GI50,DMS-273,41.7 µM (inactive)
same,GI50,UO-31,44.3 µM (inactive)
same,GI50,HCT-15,26.9 µM
same,GI50,OVCAR-5,> 100 µM (inactive)
same,GI50,NCI-H226,> 100 µM (inactive)
same,GI50,IGROV-1,41 µM (inactive)
same,GI50,NCI-H23,67.9 µM (inactive)
same,GI50,HOP-62,30.1 µM (inactive)
same,GI50,COLO 205,22.3 µM (inactive)
same,GI50,UACC-62,29.2 µM (inactive)
same,GI50,KM-20L2,> 100 µM (inactive)
same,GI50,SK-MEL-5,41.4 µM (inactive)
same,GI50,SK-MEL-2,17.5 µM (inactive)
same,GI50,A498,65.8 µM (inactive)
same,GI50,HCC 2998,73.8 µM (inactive)
same,GI50,UACC-257,41.3 µM (inactive)
same,GI50,A549,> 100 µM (inactive)
same,GI50,CCRF-CEM,23.5 µM (inactive)
same,GI50,CAKI-1,46.5 µM (inactive)
same,GI50,SNB-78,17.5 µM (inactive)
same,GI50,SK-OV-3,> 100 µM (inactive)
same,GI50,HOP-92,30.8 µM (inactive)
same,GI50,OVCAR-3,19.6 µM (inactive)
same,GI50,OVCAR-4,> 100 µM (inactive)
same,GI50,NCI-H522,24.7 µM (inactive)
same,GI50,SW-620,33.1 µM (inactive)
same,GI50,SF-295,28.8 µM (inactive)
same,GI50,NCI-H460,> 100 µM (inactive)
same,GI50,RXF 393,29.9 µM (inactive)
same,GI50,DMS-114,31.4 µM (inactive)
same,GI50,SR,25.1 µM (inactive)
same,GI50,SF-539,47.2 µM (inactive)
same,GI50,SNB-75,35.4 µM (inactive)
